# pEC50: −log10 of the molar value. Square brackets hold non-standard residues; d marks the D form. Ends that are not written are not given here. Peptide text beside a SMILES is read from it. * marks the point of attachment. Bip = N[C@@H](Cc1ccc(-c2ccccc2)cc1)C(=O)O; Oic = O=C(O)[C@@H]1C[C@@H]2CCCC[C@@H]2N1; Dip = N[C@H](C(=O)O)C(c1ccccc1)c1ccccc1; 1Nal = N[C@@H](Cc1cccc2ccccc12)C(=O)O; β3hF = N[C@H](CC(=O)O)Cc1ccccc1; β3hP = O=C(O)C[C@@H]1CCCN1; StBu = CC(C)(C)S*; tBu = CC(C)(C)*
# Biological target: T1, ferroportin fused to green fluorescent protein (ECR293/Fpn-GFP cells) (Mus musculus, UniProt Q9JHI9)
# T1 sequence (Q9JHI9 1-570): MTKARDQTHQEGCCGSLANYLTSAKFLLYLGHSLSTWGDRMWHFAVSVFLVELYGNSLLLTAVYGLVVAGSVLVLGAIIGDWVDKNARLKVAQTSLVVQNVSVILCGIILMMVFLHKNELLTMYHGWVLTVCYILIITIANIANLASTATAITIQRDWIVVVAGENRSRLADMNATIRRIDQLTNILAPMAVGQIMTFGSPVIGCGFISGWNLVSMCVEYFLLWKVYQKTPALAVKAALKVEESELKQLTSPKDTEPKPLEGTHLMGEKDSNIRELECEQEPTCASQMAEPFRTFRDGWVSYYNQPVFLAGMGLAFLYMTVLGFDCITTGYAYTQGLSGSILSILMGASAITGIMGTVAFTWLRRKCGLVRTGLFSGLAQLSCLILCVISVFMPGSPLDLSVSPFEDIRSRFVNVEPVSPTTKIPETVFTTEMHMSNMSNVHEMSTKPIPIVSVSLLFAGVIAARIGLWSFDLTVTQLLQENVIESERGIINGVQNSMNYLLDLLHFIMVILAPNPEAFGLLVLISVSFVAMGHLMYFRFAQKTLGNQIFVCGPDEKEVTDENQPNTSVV
# Test: Flow cytometry of ferroportin-GFP internalization and degradation in ECR293/Fpn-GFP cells
# Format: cell-based
# Conditions: not given
# Method: In vitro activity may be measured by the dose-dependent loss of fluorescence of cells engineered to display ferroportin fused to green fluorescent protein as in Nemeth et al. (2006) Blood 107:328-33. […]
# FLOW CYTOMETRY. The activity of peptides of the present invention was measured by flow cytometry as previously described. See Nemeth et al. (2006) Blood 107:328-333, which is herein incorporated by reference. ECR293/Fpn-GFP, a cell line stably transfected with a ponasterone-inducible ferroportin construct tagged at the C-terminus with green fluorescent protein was used. See Nemeth et al. (2004) Science 306:2090-2093, which is herein incorporated by reference. Briefly, the cells were plated on poly-D-lysine coated plates in the presence of 20 μM FAC, with or without 10 μM ponasterone. After 24 hours, ponasterone was washed off, and cells were treated with peptides for 24 hours. Cells were then trypsinized and resuspended at 1×10^6 cells/ml, and the intensity of green fluorescence was analyzed by flow cytometry. […] Cells not induced with ponasterone to express Fpn-GFP were used to establish a gate to exclude background fluorescence. Cells induced with ponasterone, but not treated with any peptides, were used as the positive control. Each peptide was tested over the range of concentrations (0, 0.01, 0.03, 0.1, 0.3, 1, 3 and 10 μM). Each peptide treatment was repeated independently 3 to 6 times.
row,Molecule,pEC50
1,CC[C@H](C)[C@H](NC(=O)[C@H](CS)NC(=O)[C@@H](NC(=O)[C@@H]1CCCN1C(=O)[C@@H](NC(=O)[C@@H](N)CC(=O)O)C(c1ccccc1)c1ccccc1)[C@@H](C)CC)C(=O)N[C@H](C(N)=O)C(c1ccccc1)c1ccccc1 [Pr41] (H-D[Dip]PICI[Dip]-NH2),6.52

# Same assay, conditions: FIG. 3 and FIG. 4
row,hepcidin activity of mini-hepcidins relative to Hep25,Molecule
1,quite active,DTHFPIAIFC-NH2 [Hep10]

# Same assay, conditions: Hep25 variants, FIG. 1, 2A, 2B
row,Molecule,relative hepcidin activity of substitutions in Hep25
1,F4Y: Hep25 with F4 substituted by tyrosine (DTHYPICIFCCGCCHRSKCGMCCKT),substantial loss of hepcidin activity
2,T2A: Hep25 with alanine substitution of residue T2 (DAHFPICIFCCGCCHRSKCGMCCKT),did not substantially impact hepcidin activity

# Same assay, conditions: concentration eliciting 50% of maximal loss of fluorescence generated by reference Hep25; 24 hours
row,pEC50,Molecule
1,6.15,CC[C@H](C)[C@H](NC(=O)[C@H](CS)NC(=O)[C@@H](NC(=O)[C@@H]1CCCN1C(=O)[C@H](Cc1ccccc1)NC(=O)[C@H](Cc1c[nH]cn1)NC(=O)[C@@H](NC(=O)[C@@H](N)CC(=O)O)[C@@H](C)O)[C@@H](C)CC)C(=O)N[C@H](CC(=O)N1CCC[C@@H]1C(=O)N1CCC[C@H]1C(=O)N[C@@H](CCCCN)C(N)=O)Cc1ccccc1 [Pr19] (H-DTHFPICI[β3hF][dP]PK-NH2)
2,6.00,CC[C@H](C)[C@H](NC(=O)[C@H](CS)NC(=O)[C@@H](NC(=O)[C@@H]1CCCN1C(=O)[C@H](Cc1ccccc1)NC(=O)[C@H](Cc1c[nH]cn1)NC(=O)[C@@H](NC(=O)[C@@H](N)CC(=O)O)[C@@H](C)O)[C@@H](C)CC)C(=O)N[C@@H](Cc1ccccc1)C(=O)N1CCC[C@@H]1C(=O)N1CCC[C@H]1CC(=O)N[C@@H](CCCNC(=N)N)C(N)=O [Pr18]
3,7.52,C[C@@H](O)[C@H](NC(=O)[C@@H](N)CC(=O)O)C(=O)N[C@@H](Cc1c[nH]cn1)C(=O)N[C@H](C(=O)N1CCC[C@H]1C(=O)N[C@@H](CCCNC(=N)N)C(=O)N[C@@H](CS)C(=O)N[C@@H](CCCNC(=N)N)C(=O)N[C@H](C(N)=O)C(c1ccccc1)c1ccccc1)C(c1ccccc1)c1ccccc1 [Pr42] (H-DTH[Dip]PRCR[Dip]-NH2; N-terminus assumed)
4,6.22,CC[C@H](C)[C@H](NC(=O)[C@H](CS)NC(=O)[C@@H](NC(=O)[C@@H]1CCCN1C(=O)[C@H](Cc1ccccc1)NC(=O)[C@H](Cc1c[nH]cn1)NC(=O)[C@@H](NC(=O)[C@@H](N)CC(=O)O)[C@@H](C)O)[C@@H](C)CC)C(=O)N[C@H](CC(=O)N1CCC[C@@H]1C(=O)N1CCC[C@H]1CC(=O)N[C@@H](CCCNC(=N)N)C(N)=O)Cc1ccccc1 [Pr22] (H-DTHFPICI[β3hF][dP][β3hP]R-NH2)
5,6.70,C[C@@H](O)[C@H](NC(=O)[C@@H](N)CC(=O)O)C(=O)N[C@@H](Cc1c[nH]cn1)C(=O)N[C@H](C(=O)N1CCC[C@H]1C(=O)N[C@H](CCCNC(=N)N)C(=O)N[C@@H](CS)C(=O)N[C@H](CCCNC(=N)N)C(=O)N[C@H](C(N)=O)C(c1ccccc1)c1ccccc1)C(c1ccccc1)c1ccccc1 [Pr43] (H-DTH[Dip]P[dR]C[dR][Dip]-NH2)
6,6.52,CC[C@H](C)[C@H](NC(=O)[C@H](CS)NC(=O)[C@@H](NC(=O)[C@@H]1CCCN1C(=O)[C@H](Cc1ccccc1)NC(=O)[C@H](Cc1c[nH]cn1)NC(=O)[C@@H](NC(=O)[C@@H](N)CC(=O)O)[C@@H](C)O)[C@@H](C)CC)C(=O)N[C@@H](Cc1ccccc1)C(=O)N1CCC[C@@H]1C(=O)N1CCC[C@H]1CC(=O)N[C@@H](CCCCN)C(N)=O [Pr17]

# Same assay, conditions: concentration eliciting 50% of maximal loss of fluorescence generated by reference Hep25; 24 hours; read-out: EC50 (the source's name)
row,DC50 [µM],Molecule
1,0.9,CC[C@H](C)[C@H](NC(=O)[C@H](CCS)NC(=O)[C@@H](NC(=O)[C@@H]1CCCN1C(=O)[C@H](Cc1ccccc1)NC(=O)[C@H](Cc1c[nH]cn1)NC(=O)[C@@H](NC(=O)[C@@H](N)CC(=O)O)[C@@H](C)O)[C@@H](C)CC)C(=O)N[C@@H](Cc1ccccc1)C(N)=O [homoC]
2,0.15,CC[C@H](C)[C@H](NC(=O)[C@H](CS)NC(=O)[C@@H](NC(=O)[C@@H]1C[C@@H]2CCCC[C@@H]2N1C(=O)[C@@H](NC(=O)[C@H](Cc1c[nH]cn1)NC(=O)[C@@H](NC(=O)[C@@H](N)CC(=O)O)[C@@H](C)O)C(c1ccccc1)c1ccccc1)[C@@H](C)CC)C(=O)N[C@H](C(N)=O)C(c1ccccc1)c1ccccc1 [Pr45] (H-DTH[Dip][Oic]ICI[Dip]-NH2; N-terminus assumed)
3,0.5,CC[C@H](C)[C@H](NC(=O)[C@H](CS)NC(=O)[C@@H](NC(=O)[C@@H]1CCCN1C(=O)[C@H](Cc1ccccc1)NC(=O)[C@H](Cc1c[nH]cn1)NC(=O)[C@@H](NC(=O)[C@@H](N)CC(=O)O)[C@@H](C)O)[C@@H](C)CC)C(=O)N[C@H](CC(=O)N1CCC[C@@H]1C(=O)N1CCC[C@H]1CC(=O)N[C@@H](CCCCN)C(N)=O)Cc1ccccc1 [Pr21] (H-DTHFPICI[β3hF][dP][β3hP]K-NH2)

# The next lines start with the molecule.
row,Molecule,DC50 [µM]
1,CC[C@H](C)[C@H](NC(=O)[C@H](CS)NC(=O)[C@@H](NC(=O)[C@@H]1CCCN1C(=O)[C@H](Cc1ccc(-c2ccccc2)cc1)NC(=O)[C@H](Cc1c[nH]cn1)NC(=O)[C@@H](NC(=O)[C@@H](N)CC(=O)O)[C@@H](C)O)[C@@H](C)CC)C(=O)N[C@@H](Cc1ccccc1)C(N)=O [F4Bip] (H-DTH[Bip]PICIF-NH2; N-terminus assumed),0.15
2,CC[C@H](C)[C@H](NC(=O)[C@@H]1CCCN1C(=O)[C@H](Cc1ccccc1)NC(=O)[C@H](Cc1c[nH]cn1)NC(=O)[C@@H](NC(=O)[C@@H](N)CC(=O)O)[C@@H](C)O)C(=O)N[C@@H](C(=O)N[C@H](C(=O)N[C@@H](Cc1ccccc1)C(N)=O)[C@@H](C)CC)C(C)(C)S [(D)Pen],3
3,CC[C@H](C)[C@H](NC(=O)[C@H](CS)NC(=O)[C@@H](NC(=O)[C@@H]1CCCN1C(=O)[C@H](Cc1ccccc1)NC(=O)[C@H](Cc1c[nH]cn1)NC(=O)[C@@H](NC(=O)[C@@H](N)CC(=O)O)[C@@H](C)O)[C@@H](C)CC)C(=O)N[C@@H](Cc1cccc2ccccc12)C(N)=O [F91Nal] (H-DTHFPICI[1Nal]-NH2; N-terminus assumed),0.2
4,DTHFPIAIFC-NH2 [Hep10],0.1
5,CC[C@H](C)[C@H](NC(=O)[C@H](CS)NC(=O)[C@@H](NC(=O)[C@@H]1CCCN1C(=O)[C@H](Cc1ccccc1)NC(=O)[C@H](Cc1c[nH]cn1)NC(=O)[C@@H](NC(=O)[C@@H](N)CC(=O)O)[C@@H](C)O)[C@@H](C)CC)C(=O)N[C@H](C(N)=O)C(c1ccccc1)c1ccccc1 [F9Dpa] (H-DTHFPICI[Dip]-NH2),0.07
6,DTHAPICIF-NH2 [Hep9F4A],> 3
7,CC[C@H](C)[C@H](NC(=O)[C@H](CS)NC(=O)[C@@H](NC(=O)[C@@H]1CCCN1C(=O)[C@H](Cc1ccccc1)NC(=O)[C@H](Cc1c[nH]cn1)NC(=O)[C@@H](NC(=O)[C@@H](N)CC(=O)O)[C@@H](C)O)[C@@H](C)CC)C(=O)N[C@@H](Cc1ccccc1)C(=O)N1CCC[C@@H]1C(=O)N1CCC[C@H]1C(=O)N[C@@H](CCCNC(=N)N)C(N)=O [Pr14],0.09
8,CC[C@H](C)[C@H](NC(=O)[C@@H]1CCCN1C(=O)[C@@H](N)Cc1ccccc1)C(=O)N[C@@H](CS)C(N)=O [Hep4] (H-FPIC-NH2),> 10
9,CC[C@H](C)[C@H](NC(=O)[C@H](CS)NC(=O)[C@@H](NC(=O)[C@@H]1CCCN1C(=O)[C@H](Cc1ccccc1)NC(=O)[C@H](Cc1c[nH]cn1)NC(=O)[C@@H](NC(=O)[C@@H](N)CC(=O)O)[C@@H](C)O)[C@@H](C)CC)C(=O)N[C@@H](Cc1ccc(-c2ccccc2)cc1)C(N)=O [F9Bip] (H-DTHFPICI[Bip]-NH2; N-terminus assumed),0.15
10,CC[C@H](C)[C@H](NC(=O)[C@H](CSC(C)(C)C)NC(=O)[C@@H](NC(=O)[C@@H]1CCCN1C(=O)[C@H](C)NC(=O)[C@H](Cc1c[nH]cn1)NC(=O)[C@@H](NC(=O)[C@@H](N)CC(=O)O)[C@@H](C)O)[C@@H](C)CC)C(=O)N[C@@H](Cc1ccccc1)C(N)=O [Hep9C7-tBut] (H-DTHAPIC(tBu)IF-NH2),> 10
11,DTHFPIAIF-NH2 [Hep9-C7A],> 10
12,CC[C@H](C)[C@H](NC(=O)[C@H](CSSC(C)(C)C)NC(=O)[C@@H](NC(=O)[C@@H]1CCCN1C(=O)[C@H](C)NC(=O)[C@H](Cc1c[nH]cn1)NC(=O)[C@@H](NC(=O)[C@@H](N)CC(=O)O)[C@@H](C)O)[C@@H](C)CC)C(=O)N[C@@H](Cc1ccccc1)C(N)=O [Hep9C7-SStBut] (H-DTHAPIC(StBu)IF-NH2),0.7

# Same assay, conditions: flow-cytometry assay of ferroportin-GFP internalization, FIG. 3
potency relative to Hep25 on a mass basis (times less potent),potency relative to Hep25 on a molar basis (times less potent),Molecule
about 4 times,about 10 times,DTHFPIAIFC-NH2 [Hep10]

# From patent US20130203662A1, “Mini-Hepcidin Peptides and Methods of Using Thereof” (priority 2008, published 2013)
